Test results reported in US20220218614A1, “IONIZABLE CATIONIC LIPIDS AND LIPID NANOPARTICLES, AND METHODS OF SYNTHESIS AND USE THEREOF” (Tidal Therapeutics, Inc., priority 2020, published 2022).
Several values for one entry are separate records, joined by “and”; a condition that tells them apart may be missing. Equal entries are not always repeated. Entries after “also recorded” stand apart in the source; their conditions may differ.

Experiments:
[1] = Hydrodynamic diameter and polydispersity of LNPs by dynamic light scattering (DLS), Zetasizer; type: physicochemical
Method: (§1) Samples of the LNPs produced in Example 2 were characterized to determine the average hydrodynamic diameter, zeta potential, and mRNA content (total and dye-accessible). The hydrodynamic diameter was determined by dynamic light scattering (DLS) using a Zetasizer model ZEN3600 (Malvern Pananalytical, UK). The zeta potential was measured in 5 mM pH 5.5 MES buffer and 5 mM pH 7.4 HEPES buffer by laser Doppler electrophoresis using the Zetasizer.

[2] = Zeta potential of LNPs by laser Doppler electrophoresis in 5 mM pH 5.5 MES and 5 mM pH 7.4 HEPES buffer; type: physicochemical; conditions: pH 5.5 MES and pH 7.4 HEPES buffer
Method: as §1

[3] = Quant-iT RiboGreen RNA assay: dye accessible and total (Triton) mRNA content, encapsulation; type: physicochemical
Method: RNA content of the nanoparticles is measured using Thermo Fisher Quant-iT RiboGreen RNA Assay Kit. Dye accessible RNA, which includes both non-incorporated RNA and RNA that is near the surface of the nanoparticle, is measured by diluting the nanoparticles to approximately 1 μg/mL mRNA using HEPES buffered saline, and then adding Quant-iT reagent to the mixture. Total RNA content is measured by diluting the particles to 1 μg/mL mRNA using HEPES buffered saline, disrupting the nanoparticles by heating them to 60° C. for 30 minutes in HEPES buffered saline containing 0.5% Triton, and then adding Quant-It reagent. RNA is quantified by measuring fluorescence at 485/535 nm, and concentration is determined relative to a contemporaneously run RNA standard curve.

[4] = tested on: primary human T-cells (CD3+ T cells); assay: In vitro LNP transfection of primary human T-cells (GFP, Cy5 or DiI, viability by FACS); type: cell-based; conditions: for GFP protein expression (% GFP+ cells, GFP MFI), in words: hSP34 targeted LNP with GFP mRNA; for GFP protein expression (% GFP+ cells, GFP MFI), in words / T-cell viability / tolerability, in words / LNP association with cells (% Cy5+/Cy5 MFI or % DiI+/DiI MFI), in words: 24 hours; for T-cell viability / tolerability, in words / LNP association with cells (% Cy5+/Cy5 MFI or % DiI+/DiI MFI), in words: hSP34 targeted LNP; for T-cell viability / tolerability, in words: dose as in the value; for T-cell viability (% live): PBS control about 50%
Text: This example describes the protocol used for in vitro LNP transfections in primary human T-cells. This method is used to assess LNP in vitro efficacy in relevant target cells (CD3+ T cells) by first transfecting the cells using LNPs loaded with mRNA encoding for a reporter gene, such as GFP mRNA, and then assessing transfection by measuring reporter gene expression by fluorescence-[…] cell sorting (FACS). Additionally, particle association with cells may be observed by in the same assay by labeling individual nanoparticle components, such as the mRNA, with a fluorescent dye, such as Cy5, and then observing cell/dye association by FACS.
CD3+ T cells were isolated from frozen peripheral blood mononuclear cells using an EasySep Human T Cell Isolation Kit on a RoboSep automated cell isolation system from […]. T cells were plated into a flat bottom 96-well plate in RPMI cell culture media supplemented with glutamax, 10% fetal bovine serum, and 40 ng/mL IL2. 100 μL of cell suspension was seeded per well at a density of 1M T cells/mL (100K T cells/well). Cells were allowed to rest for two hours in a 37° C. incubator, and then were transfected by gently adding 10 μL of a 22 μg/mL (by mRNA) nanoparticle suspension, resulting in a final mRNA concentration of 2 μg/mL. Cells were gently mixed with a pipette and then incubated for 24 hours in a 37° C. incubator. After incubation the cells were analyzed using an ThermoFisher Attune NXT flow cytometer. Cy5 was detected using a 638 nm laser with 670/14 nm filter. eGFP was detected using a 488 nm laser and a 530/30 nm filter. Data were analyzed using FlowJo software from BD biosciences. FACS data were first gated to exclude doublets and dead cells and then gated for GFP and Cy5. Gates for GFP+ and Cy5+were set such that a control sample (PBS treated T cells) was <0.1% positive.
CD3+ T cells were isolated from frozen peripheral blood mononuclear cells using an EasySep Human T Cell Isolation Kit on a RoboSep automated cell isolation system from […]. T cells were plated into a round bottom 96-well plate in RPMI cell culture media supplemented with glutamax, 10% fetal bovine serum, pen-strep, and 40 ng/mL IL-2. 100 μL of cell suspension was seeded per well at a density of 1M T cells/mL (100K T cells/well). Cells were allowed to rest for two hours in a 37° C. incubator, and then were transfected by gently adding 10 μL of a 22 μg/mL (by mRNA) nanoparticle suspension, resulting in a final mRNA concentration of 2 μg/mL (unless otherwise noted). Cells were gently mixed with a pipette and then incubated for 24 hours in a 37° C. incubator. After incubation the cells were diluted with FACS buffer (BD 554657) and analyzed using a BD Fortessa flow cytometer. Data were analyzed using FlowJo software from BD biosciences.

[5] = Apparent pKa of LNPs by TNS fluorescent probe; type: physicochemical; conditions: LNP made with the named ionizable lipid; pH at 50% of maximum TNS fluorescence
Text: This example describes the fluorescent dye based method used for measurement of the apparent pKa of the lipid nanoparticles. Apparent pKa determines the nanoparticle surface charge under physiological pH conditions, typically a pKa value in the endosomal pH range (6-7.4) results in LNPs that are neutral or slightly charged at plasma or the extracellular space (pH 7.4) and become strongly positive under acidic endosomal environments. This positive surface charge drives fusion of the LNP surface with negatively charged endosomal membranes resulting in destabilization and rupture of the endosomal compartment and LNP escape into the cytosolic compartment, a critical step in cytosolic delivery of mRNA and protein expression via engagement of the cells ribosomal machinery.
The apparent pKa of LNPs made using ionizable Lipids 2, 5 (synthesized as described in example 1), 6 and 7 (synthesized using method analogous to Lipid 2, 5, respectively, except using diethyl amine instead of dimethyl amine to incorporate the tertiary amine head group) were determined by 6-(p-Toluidino)-2-naphthalenesulfonic acid (TNS) fluorescence measurement in aqueous buffers covering a range of pH values (pH 4-pH 10). TNS is non-fluorescent when free in solution, but which fluoresces strongly when associated with a positively charged lipid nanoparticle. At a pH values below the pKa of the nanoparticle, positive LNP surface charge results in dye recruitment at the particle interface resulting in TNS fluorescence. At pH values above the LNP pKa no fluorescence is observed. The apparent pKa of the LNP is reported as the pH at which the fluorescence is at 50% of its maximum, as determined using a four-point logistic curve fit.

[6] = Table 11A: Lipid 5, Lipid 8 and DLn-MC3-DMA LNP, vortexer mixing, theoretical total mRNA 42.5 ug/mL
[7] = Table 11A: vortexer mixing, theoretical total mRNA 42.5 ug/mL
[8] = Table 25: Lipid 8 and Lipid 5 LNP, theoretical total mRNA 45 ug/mL
[9] = Table 10: Lipid 5 and Lipid 7 LNP, theoretical total mRNA 50 μg/mL

| SMILES | GFP protein expression (% GFP+ cells, GFP MFI), in words [4] | T-cell viability / tolerability, in words [4] | Measured total (Triton method) mRNA [3, 8] | Ribogreen Dye Accessible mRNA [3, 8] | also measured |
| --- | --- | --- | --- | --- | --- |
| CCCCC/C=C\C/C=C\CCCCCCCCC(CCCCCCCC/C=C\C/C=C\CCCCC)OC(=O)CCCN(C)C [DLn-MC3-DMA, DLin-MC3-DMA, reference compound] | failed to express GFP protein | better tolerated at higher doses |  |  | polydispersity after antibody conjugate insertion [1]: 0.2; LNP surface charge (zeta potential), in words [2]: positive zeta potential at pH 5.5, and either near neutral or slightly negative charge at pH 7.4; Measured total (Triton method) mRNA [3, 6]: 33 µg/mL; Ribogreen Dye Accessible mRNA [3, 7]: 2 µg/mL |
| CCCCC/C=C\C/C=C\CCCCCCCC(=O)OC[C@H](COC(=O)CCCN(C)C)OC(=O)CCCCCCC/C=C\C/C=C\CCCCC [Lipid 2] |  | well tolerated by T-cells at all LNP doses tested |  |  | apparent pKa of LNP (TNS) [5]: 7.5 |
| CCCCC/C=C\C/C=C\CCCCCCCC(=O)OC[C@H](CCN(C)C)OC(=O)CCCCCCC/C=C\C/C=C\CCCCC [Lipid 5 (N)] |  |  | 36 µg/mL | 7 µg/mL |  |
| CCCCC/C=C\C/C=C\CCCCCCCC(=O)OC[C@H](CCN(C)C)OC(=O)CCCCCCC/C=C\C/C=C\CCCCC [Lipid 5 (O)] |  |  | 38 µg/mL | 7 µg/mL |  |
| CCCCC/C=C\C/C=C\CCCCCCCC(=O)OCC(CCN(CC)CC)OC(=O)CCCCCCC/C=C\C/C=C\CCCCC (stereo not shown) [Lipid 7] | Dose dependent expression of GFP protein; also recorded: significantly lower level of GFP protein expression relative to Lipid 5 LNP formulation | well tolerated by T-cells at and below 0.5 μg/mL dose |  |  | % Dye Accessible mRNA ([3]; Table 10: Lipid 5 and Lipid 7 LNP): 14%; Measured total (Triton method) mRNA [3, 9]: 43 µg/mL; Ribogreen Dye Accessible mRNA [3, 9]: 6 µg/mL; apparent pKa of LNP (TNS) [5]: ~6.3 and ~6.4; LNP association with cells (% Cy5+/Cy5 MFI or % DiI+/DiI MFI), in words [4]: equally associated with cells |
| CCCCC/C=C\C/C=C\CCCCCCCCC1(CCCCCCCC/C=C\C/C=C\CCCCC)OCC(CCN(C)C)O1 (stereo not shown) [Lipid 8, reference compound] | Dose dependent expression of GFP protein | slightly lower viability at higher dose of 2 μg/mL; also recorded: dose dependent toxicity towards T-cells; also recorded: well tolerated by T-cells at and below 1.0 μg/mL dose | 40 µg/mL | 4 µg/mL | polydispersity after antibody conjugate insertion [1]: 0.2; LNP surface charge (zeta potential), in words [2]: positive zeta potential at pH 5.5, and either near neutral or slightly negative charge at pH 7.4; Measured total (Triton method) mRNA [3, 6]: 30 µg/mL; Ribogreen Dye Accessible mRNA [3, 7]: 3 µg/mL; T-cell viability (% live) ([4]; 0.125 ug mRNA/mL per well): about 45%; T-cell viability (% live) ([4]; 2 ug mRNA/mL per well): about 25%; LNP association with cells (% Cy5+/Cy5 MFI or % DiI+/DiI MFI), in words [4]: equally associated with cells |
| CCCCC/C=C\C/C=C\CCCCCCCC(=O)OC[C@H](COC(=O)CCN(C)CCO)OC(=O)CCCCCCC/C=C\C/C=C\CCCCC [Lipid 12] | performed poorly | well tolerated by T-cells at all LNP doses tested |  |  |  |
| CCCCC/C=C\C/C=C\CCCCCCCC(=O)OC[C@H](COC(=O)CCN(CCO)CCO)OC(=O)CCCCCCC/C=C\C/C=C\CCCCC [Lipid 13] | performed poorly | well tolerated by T-cells at all LNP doses tested |  |  |  |
